Our source for the Kd values is publication PMC7860073 (ACS Omega, 2021).

Each structure is given as a SMILES string.

In this test the target is sialidase-1 (Homo sapiens, UniProt Q99519). Briefly: microscale thermophoresis. It counts as binding. Background: In MST a laser heats a spot of the sample, and binding alters the fluorescence response.

For `COc1ccc(C(=O)c2ccc(C)cc2)c(O)c1` [mexenone], the Kd stood at 8.88 µM.
With `COc1cnc(NS(=O)(=O)c2ccc(N)cc2)nc1` [sulfameter] the figure was 2.15 µM.

For orientation: Kd means the concentration at which binding is half-saturated. A higher Kd goes with weaker binding.
